Calls of active or inactive are those of the source. No cut-off for these calls is given here.
How the values were obtained:
Liver carboxylesterase [1] = biological target: T1, Liver carboxylesterase (Sus scrofa, UniProt Q29550); experiment: Drug metabolism in PBS assessed as porcine liver esterase mediated H2S release at 500 uM by methylene blue assay; assay type: ADME; details: pig, isolated protein
T1 sequence (Q29550 whole entry): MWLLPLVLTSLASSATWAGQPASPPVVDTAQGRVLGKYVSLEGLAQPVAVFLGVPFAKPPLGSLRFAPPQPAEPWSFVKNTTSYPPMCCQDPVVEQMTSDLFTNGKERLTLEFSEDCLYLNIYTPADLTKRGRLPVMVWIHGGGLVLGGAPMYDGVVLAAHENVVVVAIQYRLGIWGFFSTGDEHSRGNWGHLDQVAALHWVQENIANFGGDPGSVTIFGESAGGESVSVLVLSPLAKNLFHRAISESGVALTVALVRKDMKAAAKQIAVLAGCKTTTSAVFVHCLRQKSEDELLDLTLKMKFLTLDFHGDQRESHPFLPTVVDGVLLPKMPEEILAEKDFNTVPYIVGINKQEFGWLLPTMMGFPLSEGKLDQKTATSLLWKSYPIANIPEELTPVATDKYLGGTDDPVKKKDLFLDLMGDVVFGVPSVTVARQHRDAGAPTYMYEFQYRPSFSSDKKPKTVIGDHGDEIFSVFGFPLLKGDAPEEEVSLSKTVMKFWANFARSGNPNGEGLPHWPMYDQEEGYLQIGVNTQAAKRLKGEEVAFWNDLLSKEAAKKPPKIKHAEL

Liver carboxylesterase [2] = biological target: T1, Liver carboxylesterase; experiment: Drug metabolism in PBS assessed as porcine liver esterase mediated compound hydrolysis by measuring half life at 500 uM by UPLC method; assay type: ADME; details: pig
[3] = Drug metabolism in Sprague-Dawley rat assessed as Sodium 2-(1-((3-methylbutanoyl)oxy)pentyl)benzothioate level at 80 umol/kg, iv measured after 1 min by LC-MS/MS analysis; assay type: ADME, organism-based; details: in vivo, dose 80 µmol/kg
[4] = Drug concentration in Sprague-Dawley rat at 80 umol/kg, iv measured after 1 min by LC-MS/MS analysis; assay type: ADME, organism-based; details: in vivo
[5] = Drug metabolism in Sprague-Dawley rat plasma assessed as 2-(1-acetoxypentyl)benzoic acid level at 80 umol/kg, iv measured after 1 min by LC-MS/MS analysis; assay type: ADME, organism-based; details: in vivo, dose 80 µmol/kg
Mus musculus [6] = experiment: Downregulation of abnormal ion channel activation related genes expression in MCAO induced C57BL/6J mouse at 100 umol/kg measured after 24 hrs by GSEA; assay type: functional; details: dose 100.0 µmol/kg
Mus musculus [7] = organism: Mus musculus; experiment: Neuroprotective activity against MCAO induced C57BL/6J mouse cerebral ischemia model assessed as appearance of high density nissl bodies in thalamic region; assay type: functional, organism-based
Mus musculus [8] = organism: Mus musculus; experiment: Neuroprotective activity against MCAO induced C57BL/6J mouse cerebral ischemia model assessed as cleaved caspase-3 expression by immunofluorescence assay; assay type: functional, organism-based
cells = assay type: functional, PC12; details: Homo sapiens, PC-12
PC12 = experiment: Neuroprotective activity against ischemia/hypoxia induced cell injury in […] PC12 cells assessed as increase in cell viability at 10 to 20 uM by MTT assay; assay type: functional, cell-based; details: dose 10-20 µM
Mus musculus [9] = experiment: Induction of iron-sulfur cluster related genes transcriptional level in MCAO induced C57BL/6J mouse at 100 umol/kg measured after 24 hrs by GSEA; assay type: functional, organism-based; details: dose 100.0 µmol/kg
Mus musculus [10] = organism: Mus musculus; experiment: Neuroprotective activity against MCAO induced C57BL/6J mouse cerebral ischemia model assessed as NeuN expression by immunofluorescence assay; assay type: functional, organism-based
Mus musculus [11] = experiment: Induction of iron-sulfur cluster related genes transcriptional level in MCAO induced C57BL/6J mouse at 100 umol/kg measured after 24 hrs; assay type: functional, organism-based; details: dose 100.0 µmol/kg
Mus musculus [12] = organism: Mus musculus; experiment: Neuroprotective activity against MCAO induced C57BL/6J mouse cerebral ischemia model assessed as reduction in nuclear leakage; assay type: functional, organism-based
[13] = Downregulation of MDA level in MCAO induced C57BL/6J mouse at 100 umol/kg measured after 24 hrs (reference value: 15.1 +/- 0.5 nmol/mg); assay type: functional; details: dose 100 µmol/kg
Mus musculus [14] = experiment: Downregulation of oxidative stress related genes expression in MCAO induced C57BL/6J mouse at 100 umol/kg measured after 24 hrs by GSEA; assay type: functional, organism-based; details: dose 100.0 µmol/kg
[15] = Drug metabolism in Sprague-Dawley rat plasma assessed as 3-butylisobenzofuran-1(3H)-thione level at 80 umol/kg, iv measured after 1 min by LC-MS/MS analysis; assay type: ADME, organism-based; details: in vivo, dose 80 µmol/kg
Mus musculus [16] = organism: Mus musculus; experiment: Neuroprotective activity against MCAO induced C57BL/6J mouse cerebral ischemia model assessed as appearance of high density nissl bodies in hippocampal region; assay type: functional, organism-based
Mus musculus [17] = organism: Mus musculus; experiment: Neuroprotective activity against MCAO induced C57BL/6J mouse cerebral ischemia model assessed as upregulation of genes related to dopaminergic neuron differentiation by GSEA; assay type: functional, organism-based
Mus musculus [18] = experiment: Neuroprotective activity against MCAO induced C57BL/6J mouse assessed as reduction in infarct area at 100 umol/kg measured after 24 hrs by TTC staining based analysis; assay type: functional; parameters: scale not given: the % may be the effect or the level left; details: dose 100 µmol/kg
[19] = Cytotoxicity against […] PC12 cells upto 500 uM; assay type: toxicity, cell-based; details: pc12, 500 µM
Mus musculus [20] = organism: Mus musculus; experiment: Neuroprotective activity against MCAO induced C57BL/6J mouse cerebral ischemia model assessed as upregulation of genes related to neuroprotection by GSEA; assay type: functional, organism-based
[21] = Drug concentration in Sprague-Dawley rat plasma at 80 umol/kg, iv measured after 1 min by LC-MS/MS analysis; assay type: ADME, organism-based; details: dose 80 µmol/kg
[22] = Drug metabolism in Sprague-Dawley rat assessed as Sodium 2-(1-acetoxypentyl)benzothioate level at 80 umol/kg, iv measured after 1 min by LC-MS/MS analysis; assay type: ADME, organism-based; details: in vivo, dose 80 µmol/kg
[23] = Drug metabolism in Sprague-Dawley rat assessed as 3-butylisobenzofuran-1(3H)-one level at 80 umol/kg, iv measured after 1 min by LC-MS/MS analysis; assay type: ADME, organism-based; details: in vivo, dose 80 µmol/kg

CCCCC(OC(=O)CC(C)C)c1ccccc1C(=O)[S-].[Na+] (stereo not given)
Drug metabolism (Liver carboxylesterase [1]): 31 µM | half-life at 500 µM (Liver carboxylesterase [2]): 6.42 h

CCCCC(OC(=O)CC)c1ccccc1C(=O)SSCC(NC(C)=O)C(=O)[O-].[Na+] (stereo not given)
half-life at 500 µM (Liver carboxylesterase [2]): 0.333 h

CCCCC(OC(=O)C(C)C)c1ccccc1C(=O)[S-].[Na+] (stereo not given)
half-life at 500 µM (Liver carboxylesterase [2]): 15 h

CCCCC(OC(=O)CC(C)C)c1ccccc1C(=O)SSCC(NC(C)=O)C(=O)[O-].[Na+] (stereo not given)
Drug metabolism [3]: 201.1 µg/mL | Drug uptake ([4]; iv, 1 min, dose 80 µmol/kg): Not Active | half-life at 500 µM (Liver carboxylesterase [2]): 0.22 h | Drug metabolism [5]: 41 µg/mL

CCCCC(OC(C)=O)c1ccccc1C(=O)[S-].[Na+] (stereo not given)
Activity (Mus musculus [6]): Active | Activity (Mus musculus [7]): Active | Activity (Mus musculus [8]): Active | viability at 10 µM (cells): 92.5% | Activity (PC12): Active | Drug metabolism (Liver carboxylesterase [1]): 2.8 µM | Activity (Mus musculus [9]): Active | Activity (Mus musculus [10]): Active | Activity (Mus musculus [11]): Active | Activity (Mus musculus [12]): Active | Activity [13]: 6.3 nmol/mg | Activity (Mus musculus [14]): Active | Drug metabolism [15]: 35.5 µg/mL | Activity (Mus musculus [16]): Active | half-life at 500 µM (Liver carboxylesterase [2]): 23.3 h | Activity (Mus musculus [17]): Active | Drug metabolism [5]: 23.6 µg/mL | Activity (Mus musculus [18]): 13.8% | Activity [19]: Non-Toxic | Activity (Mus musculus [20]): Active | concentration at 1 min [21]: 216 µg/mL

CCCCC(OC(C)=O)c1ccccc1C(=O)SSCC(NC(C)=O)C(=O)O (stereo not given)
Drug metabolism [22]: 105.9 µg/mL | viability at 10 µM (cells): 86.2% | Activity (Mus musculus [11]): inactive | Activity [13]: 9.9 nmol/mg | Drug metabolism [15]: 34.4 µg/mL | half-life at 500 µM (Liver carboxylesterase [2]): 2.98 h | Drug metabolism [5]: 44.4 µg/mL | Activity (Mus musculus [18]): 20.6% | Activity [19]: Non-Toxic | concentration at 1 min [21]: 151 µg/mL

CCCCC(OC(=O)C(C)C)c1ccccc1C(=O)SSCC(NC(C)=O)C(=O)[O-].[Na+] (stereo not given)
half-life at 500 µM (Liver carboxylesterase [2]): 0.225 h

CCCCC1OC(=S)c2ccccc21 (stereo not given)
concentration at 1 min ([4]; Sprague-Dawley, 80 umol/kg, read-out: Drug uptake): 7.5 µg/mL | Drug metabolism [23]: 1.2 µg/mL

CCCCC(OC(C)=O)c1ccccc1C(=O)O (stereo not given)
viability at 10 µM (cells): 86.4% | Activity [13]: 9.4 nmol/mg | Activity (Mus musculus [18]): 20.6%
